# Patent US12714708B2, “Compounds with anti-tumor activity against cancer cells bearing HER2 exon 19 mutations” (Board of Regents, The University of Texas System, priority 2019, dated 2026)
# Experiments:
# [1] = system: Ba/F3 HER2 L755P mutant cells; assay: Cell Titer Glo cell viability, Ba/F3 cells expressing HER2 L755P; format: cell-based; conditions: for inhibition of cell viability: Ba/F3 cells expressing HER2 L755P protein; for IC50: Mus musculus, BaF3, Ba/F3 HER2 L755P mutant cells
# Experimental: Ba/F3 cells expressing exon 19 point mutation L755P were generated.
# Cell line generation and IL-3 deprivation: Ba/F3 cell line, was cultured in complete RPMI-1640 (R8758; Sigma Life Science) media supplemented with L-glutamine, 10% heat inactivated FBS (Gibco), 1% penicillin/streptomycin (Sigma Life Science), and 10 ng/ml mouse IL-3 (R&D systems) under sterile conditions. Stable cell lines were generated by retroviral transduction of Ba/F3 cell line for 12 hours. Retroviruses were generated by transfecting pBabe-Puro based vectors into the Phoenix 293T ampho packing cell line (Orbigen) using Lipofectamine 2000 (Invitrogen). 72 hours after transduction, 2 μg/ml puromycin (Invitrogen) was added to the media. After 5 days of selection, cells were stained with FITC-HER2 (Biolegend) and sorted via FACS. Cell lines were then grown in the absence of IL-3 for 15 days and cell viability was determined every 3 days using the Cell Titer Glo assay (Progema). Resulting stable cell lines were maintained in complete RPMI-1640 media described above without IL-3. […] To generate HER2 […] cell lines, cells were transduced with c.2264T>C (created from Bioinnovatise from pBabe-puro HER WT from Addgene (#40978)).
# (§1) Cell viability assay and IC50 estimation: Cell viability was determined using the Cell Titer Glo assay (Promega) as previously described (Robichaux et al., 2018). Briefly, 2000-3000 cells per well were plated in 384-well plates (Greiner Bio-One) in technical triplicate. Cells were treated with seven different concentrations of tyrosine kinase inhibitors or vehicle alone at a final volume of 40 μL per well. After 3 days, 11 μL of Cell Titer Glo was added to each well. Plates were shaken for 15 minutes, and bioluminescence was determined using a FLUOstar OPTIMA multi-mode micro-plate reader (BMG LABTECH). Bioluminescence values were normalized to DMSO treated cells, and normalized values were plotted in GraphPad Prism using non-linear regression fit to normalized data with a variable slope. IC50 values were calculated by GraphPad Prism at 50% inhibition.
# [2] = system: CW-2 cells (HER2 L755S) xenografts; assay: CW-2 cell line xenograft tumor growth study; format: in vivo, mice; conditions: for Tukey's multiple comparisons test Summary: Poziotinib 5 mg/kg
# Experimental: In vivo xenograft studies: CW-2 cell line xenografts were created by injecting 1×10^6 cells in 50% matrigel into 6-week-old female nu/nu nude mice. When tumors reached 350 mm^3 mice were randomized into 4 groups: 20 mg/kg afatinib, 5 mg/kg poziotinib, 30 mg/kg neratinib, or vehicle control (0.5% Methylcellulose, 2% Tween-80 in dH2O). Tumor volumes were measured three times per week. Mice received drug Monday-Friday (5 days per week), but began dosing on Wednesday allowing for a 2-day holiday after the first 3 days of dosing.
# [3] = system: HER2 exon 19 mutant Ba/F3 cell lines; assay: Cell Titer Glo cell viability, Ba/F3 cell lines expressing HER2 exon 19 mutations; format: cell-based
# Experimental: In addition, several other HER2 exon 19 mutations including D769Y, D769N, D769H, L755S, and R678Q were tested for their sensitivity to different TKIs including poziotinib.
# Cell viability of stable Ba/F3 cell lines expressing HER2 exon 19 mutations grown in IL-3 free conditions was measured for 14 days. Cell viability was determined every 3 days by the Cell Titer Glo assay (FIG. 4). […] Average IC50 values of Ba/F3 cells expressing L755S or L755P with indicated inhibitors were measured (FIG. 5C).
# Cell line generation and IL-3 deprivation: Ba/F3 cell line, was cultured in complete RPMI-1640 (R8758; Sigma Life Science) media supplemented with L-glutamine, 10% heat inactivated FBS (Gibco), 1% penicillin/streptomycin (Sigma Life Science), and 10 ng/ml mouse IL-3 (R&D systems) under sterile conditions. Stable cell lines were generated by retroviral transduction of Ba/F3 cell line for 12 hours. Retroviruses were generated by transfecting pBabe-Puro based vectors into the Phoenix 293T ampho packing cell line (Orbigen) using Lipofectamine 2000 (Invitrogen). 72 hours after transduction, 2 μg/ml puromycin (Invitrogen) was added to the media. After 5 days of selection, cells were stained with FITC-HER2 (Biolegend) and sorted via FACS. Cell lines were then grown in the absence of IL-3 for 15 days and cell viability was determined every 3 days using the Cell Titer Glo assay (Progema). Resulting stable cell lines were maintained in complete RPMI-1640 media described above without IL-3. Cell line identity was confirmed by DNA fingerprinting via short tandem repeats using the PowerPlex 1.2 kit (Promega). Fingerprinting results were compared with reference fingerprints maintained by the primary source of the cell line. All cell lines were free of mycoplasma. […]
# Cell viability assay and IC50 estimation: Cell viability was determined using the Cell Titer Glo assay (Promega) as previously described (Robichaux et al., 2018). […] Plates were shaken for 15 minutes, and bioluminescence was determined using a FLUOstar OPTIMA multi-mode micro-plate reader (BMG LABTECH). […]
# [4] = system: CW-2 colorectal cells; assay: Cell viability of CW-2 cells treated with inhibitors; format: cell-based, human; conditions: various concentrations, 72 hours (FIG. 6A)
# Experimental: A mouse study was performed with mice inoculated with CW-2 cells treated with poziotinib, afatinib, or neratinib. […] Thus, poziotinib, as well as structurally similar inhibitors, are potent inhibitors of HER2 exon 19 mutations and can be used as therapeutics to overcome de novo drug resistance.
# as §1
# Human cell lines: MCF10A cells were purchased from ATCC and were cultured in DMEM/F12 media supplemented with 1% penicillin/streptomycin, 5% horse serum (sigma), 20 ng/ml EGF, […] hydrocortisone, and 10 ug/ml insulin. […]
# [5] = Day 10, vs. Vehicle, Afatinib 20 mg/kg, Neratinib 30 mg/kg, two-way ANOVA of FIG. 6B
# [6] = Day 13, vs. Vehicle, Afatinib 20 mg/kg, Neratinib 30 mg/kg, two-way ANOVA of FIG. 6B
compound,measurement,setting,value
CS(=O)(=O)CCNCc1ccc(-c2ccc3ncnc(Nc4ccc(OCc5cccc(F)c5)c(Cl)c4)c3c2)o1 [lapatinib],inhibition of cell viability,[1],failed to inhibit cell viability
CN(C)C/C=C/C(=O)Nc1cc2c(Nc3ccc(F)c(Cl)c3)ncnc2cc1O[C@H]1CCOC1 [afatinib],IC50,[1],13 nM
CCOc1cc2ncc(C#N)c(Nc3ccc(OCc4ccccn4)c(Cl)c3)c2cc1NC(=O)/C=C/CN(C)C [neratinib],Tukey's multiple comparisons test Summary,[2]; [5],ns
same,Tukey's multiple comparisons test Summary,[2]; [6],ns
same,Tukey's multiple comparisons test Summary,"[2]; Day 15, vs. Vehicle, Afatinib 20 mg/kg, Neratinib 30 mg/kg, two-way ANOVA of FIG. 6B",ns
same,Tukey's multiple comparisons test Summary,"[2]; Day 17, vs. Vehicle, Afatinib 20 mg/kg, Neratinib 30 mg/kg, two-way ANOVA of FIG. 6B",ns
Cc1cc(C(=O)Nc2nc3cccc(Cl)c3n2[C@@H]2CCCCN(C(=O)/C=C/CN(C)C)C2)ccn1 [EGF-816],inhibition of cell viability,[1],failed to inhibit cell viability
"C=CC(=O)N1CCC(Oc2cc3c(Nc4ccc(Cl)c(Cl)c4F)ncnc3cc2OC)CC1 [poziotinib, 1-[4-[4-(3,4-dichloro-2-fluoroanilino)-7-methoxyquinazolin-6-yl]oxypiperidin-1-yl]prop-2-en-1-one]",Tukey's multiple comparisons test Summary,"[2]; Day 10, vs. Afatinib (20 mg/kg)",ns
same,Tukey's multiple comparisons test Summary,[2]; [5],ns
same,Tukey's multiple comparisons test Summary,"[2]; Day 13, vs. Afatinib (20 mg/kg)",ns
same,Tukey's multiple comparisons test Summary,"[2]; Day 13, vs. Neratinib (30 mg/kg), Afatinib 20 mg/kg",ns
same,Tukey's multiple comparisons test Summary,[2]; [6],ns
same,Tukey's multiple comparisons test Summary,"[2]; Day 15, vs. Afatinib (20 mg/kg)",ns
same,Tukey's multiple comparisons test Summary,"[2]; Day 17, vs. Afatinib (20 mg/kg)",ns
same,Tumor growth,"[2]; mice inoculated with CW-2 cells, 5 mg/kg (FIG. 6C)",significantly decreased
same,IC50 values as compared to the other inhibitors tested,"[3]; Ba/F3 cells expressing HER2 exon 19 mutations incl. L755S or L755P, 72 hours of drug treatment",lowest IC50 values
same,concentrations inhibiting HER2 exon 19 mutants,[3]; HER2 exon 19 mutants,low nanomolar concentrations
same,inhibition of growth of mutant cells,"[3]; HER2 exon 19 mutations D769Y, D769N, D769H, L755S, R678Q (FIG. 3)",inhibited the growth of these mutant cells
same,inhibition of cell viability,[1],inhibition of cell viability
same,IC50,[1],3 nM
same,decrease in cell viability,[4],highest decrease in cell viability
